The values below are quoted from earlier work in patent US20030124524A1, “Screening assays for identifying modulators of the inflammatory or immune response” (priority 2000, published 2003).

Like-named read-outs stand apart in the source and are kept apart here.

On to “rhIL-1ra: recombinant human IL-1 receptor antagonist protein, useful for treatment of rheumatoid arthritis in a genotype-dependent manner”, for which the “response to treatment of rheumatoid arthritis” value is, setting by setting: (patients carrying at least one IL-1A (+4845) allele 2 (and alleles in linkage disequilibrium)) “substantial and significant response”; (patients homozygous for IL-1A (+4845) allele 1) “response no better than placebo”.
